Patent publication US12252524B2, “GIP/GLP1 co-agonist compounds” (Eli Lilly and Company, priority 2018, dated 2025)
Numbered stars: 1 amine (or outer) side, 2 acyl side, 3 side chain; on linkers, the order of the positions; unused ones are H or OH. Square brackets hold non-standard residues; d marks the D form. Side chains are listed from the residue outwards. Peptide text beside a SMILES is read from it. * marks the point of attachment. C20 diacid = O=C(O)CCCCCCCCCCCCCCCCCCC(=O)*; C18 diacid = O=C(O)CCCCCCCCCCCCCCCCC(=O)*; γGlu = O=C(O)[C@H](CCC(=O)[*:2])N[*:1]; αMeY = C[C@](N)(Cc1ccc(O)cc1)C(=O)O; αMeL = CC(C)C[C@](C)(N)C(=O)O; Orn = NCCC[C@H](N)C(=O)O; AEEA = NCCOCCOCC(=O)O; Aib = CC(C)(N)C(=O)O

Experiments:
human GIP receptor = molecular target: T1, human GIP receptor (Homo sapiens, UniProt P48546); assay: [125I]-GIP binding (SPA), human GIP receptor; settings: read-out: hGIPR Ki, nM (SEM, n)
T1 construct: expressed in transfected cells; crude membranes
T1 sequence (P48546 22-466): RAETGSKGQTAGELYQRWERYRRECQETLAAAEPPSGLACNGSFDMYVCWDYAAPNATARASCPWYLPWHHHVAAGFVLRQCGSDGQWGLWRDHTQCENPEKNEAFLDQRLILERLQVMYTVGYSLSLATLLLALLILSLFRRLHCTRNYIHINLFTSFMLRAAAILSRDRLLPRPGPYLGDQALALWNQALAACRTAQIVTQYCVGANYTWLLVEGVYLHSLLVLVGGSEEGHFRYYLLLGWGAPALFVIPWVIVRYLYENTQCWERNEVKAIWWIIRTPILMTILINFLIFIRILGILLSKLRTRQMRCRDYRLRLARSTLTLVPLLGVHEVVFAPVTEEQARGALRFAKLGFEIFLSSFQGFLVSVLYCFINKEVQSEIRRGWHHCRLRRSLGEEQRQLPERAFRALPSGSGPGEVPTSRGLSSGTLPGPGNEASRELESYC

[1] = molecular target: T2, gastric inhibitory peptide receptor (GIPR) (Homo sapiens, UniProt P48546); assay: cAMP pharmacological functional assay in presence of casein, hGIPR; type: cell-based; settings: HEK293 cells expressing hGIPR, 0.1% Casein, geometric mean; read-out: hGIPR cAMP Rel EC50 nM (SEM, n)
T2 sequence (P48546 22-466): T1 sequence (P48546 22-466)

[2] = molecular target: human GLP-1 receptor (GLP-1R) (Homo sapiens, UniProt P43220); assay: cAMP pharmacological functional assay in presence of casein, hGLP-1R; type: cell-based; settings: HEK293 cells expressing hGLP-1R, 0.1% Casein, geometric mean; read-out: hGLP1R cAMP Rel EC50 nM (SEM, n)
Sequence of human GLP-1 receptor (GLP-1R) (P43220 24-463): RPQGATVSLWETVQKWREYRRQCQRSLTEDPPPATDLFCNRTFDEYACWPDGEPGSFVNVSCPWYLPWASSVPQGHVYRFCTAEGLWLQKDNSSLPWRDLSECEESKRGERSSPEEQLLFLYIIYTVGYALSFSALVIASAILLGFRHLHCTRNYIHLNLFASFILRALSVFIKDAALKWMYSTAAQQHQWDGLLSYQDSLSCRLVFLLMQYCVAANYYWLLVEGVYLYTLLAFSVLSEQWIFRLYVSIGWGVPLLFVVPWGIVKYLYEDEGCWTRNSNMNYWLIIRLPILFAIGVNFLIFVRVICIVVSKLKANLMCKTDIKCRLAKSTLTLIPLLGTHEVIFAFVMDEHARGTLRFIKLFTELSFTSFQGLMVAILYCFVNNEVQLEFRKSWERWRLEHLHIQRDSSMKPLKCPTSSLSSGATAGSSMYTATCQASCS

human Gcg receptor = molecular target: T3, human Gcg receptor (Homo sapiens, UniProt P47871); assay: [125I]-Glucagon binding (SPA), human Gcg receptor; settings: read-out: hGLcgR Ki, nM (SEM, n)
T3 construct: expressed in transfected cells; crude membranes
T3 sequence (P47871 26-477): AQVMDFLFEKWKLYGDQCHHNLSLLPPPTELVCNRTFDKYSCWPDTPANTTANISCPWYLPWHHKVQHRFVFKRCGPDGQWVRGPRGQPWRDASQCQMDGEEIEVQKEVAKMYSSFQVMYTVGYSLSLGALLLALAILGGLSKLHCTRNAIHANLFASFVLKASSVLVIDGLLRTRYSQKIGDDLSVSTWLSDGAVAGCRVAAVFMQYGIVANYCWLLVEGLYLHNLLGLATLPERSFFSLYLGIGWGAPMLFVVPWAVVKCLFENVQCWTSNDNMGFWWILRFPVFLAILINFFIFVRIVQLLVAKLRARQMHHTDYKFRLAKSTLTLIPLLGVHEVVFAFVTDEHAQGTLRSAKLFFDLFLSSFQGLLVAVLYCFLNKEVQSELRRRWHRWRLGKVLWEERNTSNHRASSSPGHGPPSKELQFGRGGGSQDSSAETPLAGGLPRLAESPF
How it was run: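 Cell pellets were lysed in hypotonic Tris buffer, pH 7.5, homogenized, and spun at low then high speed to give crude membranes. Ki was derived from the fitted IC50.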

human GLP-1R [3] = molecular target: T4, human GLP-1R (Homo sapiens, UniProt P43220); assay: GLP-1R HEK293 cell membrane [35S]GTPγS binding assay; type: biochemical; design: expressed in transfected cells; host or cells: HEK293 cells expressing human GLP-1R; membranes; settings: HEK293 cell membranes expressing human GLP-1R, [35S]GTPγS binding; read-out: hGLP1R GTPgS Rel EC50 nM (SEM, n)
T4 sequence (P43220 24-463): as the sequence (P43220 24-463) above
How it was run: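 Membranes from HEK293 cells expressing the receptor incubated with peptide and […] [35S]GTPγS in HEPES pH 7.4 buffer with NaCl, MgCl2, saponin and BSA, 30 min at room temperature. Gαs-bound label captured by anti-Gαs antibody/SPA beads and counted; EC50 from four-parameter logistic fit.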

human GLP-1R [4] = molecular target: T4, human GLP-1R; assay: GLP-1R CHO cell β-arrestin recruitment assay; type: cell-based; design: host or cells: CHO-K1 PathHunter cells, assay-ready frozen; settings: for EC50: CHO-K1 cells; for hGLP1R B-Arrestin2 % Top: normalized to GLP-1 maximum control
How it was run: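 PathHunter CHO-K1 cells with ProLink-tagged human GLP-1R and enzyme-acceptor-tagged β-arrestin-2 treated with serially diluted peptides in assay buffer containing 0.1% hydrolyzed casein, 90 min at 37 °C.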

[5] = 0.1% w/v hydrolyzed Casein, read-out: hGLP1R B-Arrestin2 Rel EC50
[6] = PathHunter β-arrestin-2 recruitment, 0.1% casein, read-out: hGLP1R B-Arrestin2 Rel EC50 uM (SEM, n)

| Structure (SMILES) | Ki (human GIP receptor) [nM] | EC50 [1] [nM] | EC50 [2] [nM] | Ki (human Gcg receptor) [nM] | EC50 (human GLP-1R [3]) [nM] | EC50 (human GLP-1R [4]; [5]) [µM] | EC50 (human GLP-1R [4]; [6]) [µM] | hGLP1R B-Arrestin2 % Top (human GLP-1R [4]) [%] |
| --- | --- | --- | --- | --- | --- | --- | --- | --- |
| CC[C@H](C)[C@H](NC(=O)[C@H](CC(C)C)NC(=O)[C@H](Cc1ccc(O)cc1)NC(=O)[C@H](CCC(=O)O)NC(=O)[C@@H](NC(=O)[C@H](Cc1ccccc1)NC(=O)[C@H](C)NC(=O)C(C)(C)NC(=O)[C@H](CCC(N)=O)NC(=O)[C@H](C)NC(=O)[C@H](CCCCNC(=O)COCCOCCNC(=O)COCCOCCNC(=O)CC[C@H](NC(=O)CCCCCCCCCCCCCCCCCCC(=O)O)C(=O)O)NC(=O)[C@H](CCC(=O)O)NC(=O)[C@H](CC(=O)O)NC(=O)[C@H](CC(C)C)NC(=O)[C@H](CC(C)C)NC(=O)[C@@H](NC(=O)[C@H](CO)NC(=O)[C@H](Cc1ccc(O)cc1)NC(=O)[C@H](CC(=O)O)NC(=O)[C@H](CO)NC(=O)[C@@H](NC(=O)[C@H](Cc1ccccc1)NC(=O)[C@@H](NC(=O)CNC(=O)[C@H](CCC(=O)O)NC(=O)C(C)(C)NC(=O)[C@@H](N)Cc1ccc(O)cc1)[C@@H](C)O)[C@@H](C)O)[C@@H](C)CC)[C@@H](C)CC)C(=O)N[C@@H](C)C(=O)NCC(=O)NCC(=O)N1CCC[C@H]1C(=O)N[C@@H](CO)C(=O)N[C@@H](CO)C(=O)NCC(=O)N[C@@H](C)C(=O)N1CCC[C@H]1C(=O)N1CCC[C@H]1C(=O)N1CCC[C@H]1C(=O)N[C@@H](CO)C(N)=O [Example 330] (H-Y[Aib]EGTFTSDYSILLDEK([AEEA-AEEA-γGlu-C20 diacid])AQ[Aib]AFIEYLIAGGPSSGAPPPS-NH2) | 0.114 | 0.0919 | 0.199 | > 1050 | 1.05 | > 10.9 | > 10.9 | – |
| CC[C@H](C)[C@H](NC(=O)[C@H](CC(C)C)NC(=O)[C@](C)(Cc1ccc(O)cc1)NC(=O)[C@H](CCC(=O)O)NC(=O)[C@@H](NC(=O)[C@H](Cc1ccccc1)NC(=O)[C@H](C)NC(=O)C(C)(C)NC(=O)[C@H](CCC(N)=O)NC(=O)[C@H](C)NC(=O)[C@H](CCCCNC(=O)COCCOCCNC(=O)COCCOCCNC(=O)CC[C@H](NC(=O)CCCCCCCCCCCCCCCCC(=O)O)C(=O)O)NC(=O)[C@H](CCCN)NC(=O)[C@H](CC(=O)O)NC(=O)[C@H](CC(C)C)NC(=O)[C@](C)(CC(C)C)NC(=O)[C@@H](NC(=O)[C@H](CO)NC(=O)[C@H](Cc1ccc(O)cc1)NC(=O)[C@H](CC(=O)O)NC(=O)[C@H](CO)NC(=O)[C@@H](NC(=O)[C@H](Cc1ccccc1)NC(=O)[C@@H](NC(=O)CNC(=O)[C@H](CCC(=O)O)NC(=O)C(C)(C)NC(=O)[C@H](N)Cc1ccc(O)cc1)[C@@H](C)O)[C@@H](C)O)[C@@H](C)CC)[C@@H](C)CC)C(=O)N[C@@H](C)C(=O)NCC(=O)NCC(=O)N1CCC[C@H]1C(=O)N[C@@H](CO)C(=O)N[C@@H](CO)C(=O)NCC(=O)N[C@@H](C)C(=O)N1CCC[C@H]1C(=O)N1CCC[C@H]1C(=O)N1CCC[C@H]1C(=O)N[C@@H](CO)C(N)=O [Example 377] (H-[dY][Aib]EGTFTSDYSI[αMeL]LD[Orn]K([AEEA-AEEA-γGlu-C18 diacid])AQ[Aib]AFIE[αMeY]LIAGGPSSGAPPPS-NH2) | – | 0.0544 | 0.136 | – | 0.356 | – | 0.00532 | 16.7 |
| CC[C@H](C)[C@H](NC(=O)[C@H](CC(C)C)NC(=O)[C@H](Cc1ccc(O)cc1)NC(=O)[C@H](CCC(=O)O)NC(=O)[C@@H](NC(=O)[C@H](Cc1ccccc1)NC(=O)[C@H](CCC(=O)O)NC(=O)C(C)(C)NC(=O)[C@H](CCC(N)=O)NC(=O)[C@H](C)NC(=O)[C@H](CCCCNC(=O)COCCOCCNC(=O)CC[C@H](NC(=O)CCCCCCCCCCCCCCCCCCC(=O)O)C(=O)O)NC(=O)[C@H](CCCCN)NC(=O)[C@H](CC(=O)O)NC(=O)[C@H](CC(C)C)NC(=O)[C@](C)(CC(C)C)NC(=O)[C@@H](NC(=O)[C@H](CO)NC(=O)[C@H](Cc1ccc(O)cc1)NC(=O)[C@H](CC(=O)O)NC(=O)[C@H](CO)NC(=O)[C@@H](NC(=O)[C@H](Cc1ccccc1)NC(=O)[C@@H](NC(=O)CNC(=O)[C@H](CCC(=O)O)NC(=O)C(C)(C)NC(=O)[C@H](N)Cc1ccc(O)cc1)[C@@H](C)O)[C@@H](C)O)[C@@H](C)CC)[C@@H](C)CC)C(=O)N[C@@H](C)C(=O)NCC(=O)NCC(=O)N1CCC[C@H]1C(=O)N[C@@H](CO)C(=O)N[C@@H](CO)C(=O)NCC(=O)N[C@@H](C)C(=O)N1CCC[C@H]1C(=O)N1CCC[C@H]1C(=O)N1CCC[C@H]1C(=O)N[C@@H](CO)C(N)=O [Example 378] (H-[dY][Aib]EGTFTSDYSI[αMeL]LDKK([AEEA-γGlu-C20 diacid])AQ[Aib]EFIEYLIAGGPSSGAPPPS-NH2) | – | 0.067 | 0.191 | – | 0.359 | > 10.2 | > 10.2 | – |
| CC[C@H](C)[C@H](NC(=O)[C@H](CC(C)C)NC(=O)[C@](C)(Cc1ccc(O)cc1)NC(=O)[C@H](CCC(=O)O)NC(=O)[C@@H](NC(=O)[C@H](Cc1ccccc1)NC(=O)[C@H](CCC(=O)O)NC(=O)C(C)(C)NC(=O)[C@H](CCC(N)=O)NC(=O)[C@H](C)NC(=O)[C@H](CCCCNC(=O)COCCOCCNC(=O)COCCOCCNC(=O)CC[C@H](NC(=O)CCCCCCCCCCCCCCCCCCC(=O)O)C(=O)O)NC(=O)[C@H](CCCCN)NC(=O)[C@H](CC(=O)O)NC(=O)[C@H](CC(C)C)NC(=O)[C@](C)(CC(C)C)NC(=O)[C@@H](NC(=O)[C@H](CO)NC(=O)[C@H](Cc1ccc(O)cc1)NC(=O)[C@H](CC(=O)O)NC(=O)[C@H](CO)NC(=O)[C@@H](NC(=O)[C@H](Cc1ccccc1)NC(=O)[C@@H](NC(=O)CNC(=O)[C@H](CCC(=O)O)NC(=O)C(C)(C)NC(=O)[C@H](N)Cc1ccc(O)cc1)[C@@H](C)O)[C@@H](C)O)[C@@H](C)CC)[C@@H](C)CC)C(=O)N[C@@H](CCC(=O)O)C(=O)NCC(=O)NCC(=O)N1CCC[C@H]1C(=O)N[C@@H](CO)C(=O)N[C@@H](CO)C(=O)NCC(=O)N[C@@H](C)C(=O)N1CCC[C@H]1C(=O)N1CCC[C@H]1C(=O)N1CCC[C@H]1C(=O)N[C@@H](CO)C(N)=O [Example 379] (H-[dY][Aib]EGTFTSDYSI[αMeL]LDKK([AEEA-AEEA-γGlu-C20 diacid])AQ[Aib]EFIE[αMeY]LIEGGPSSGAPPPS-NH2) | – | 0.079 | 0.238 | – | 0.239 | – | 0.0181 | 31.9 |
| CC[C@H](C)[C@H](NC(=O)[C@H](CC(C)C)NC(=O)[C@](C)(Cc1ccc(O)cc1)NC(=O)[C@H](CCC(=O)O)NC(=O)[C@@H](NC(=O)[C@H](Cc1ccccc1)NC(=O)[C@H](CCC(=O)O)NC(=O)C(C)(C)NC(=O)[C@H](CCC(N)=O)NC(=O)[C@H](C)NC(=O)[C@H](CCCCNC(=O)COCCOCCNC(=O)COCCOCCNC(=O)CC[C@H](NC(=O)CCCCCCCCCCCCCCCCCCC(=O)O)C(=O)O)NC(=O)[C@H](CCCN)NC(=O)[C@H](CC(=O)O)NC(=O)[C@H](CC(C)C)NC(=O)[C@](C)(CC(C)C)NC(=O)[C@@H](NC(=O)[C@H](CO)NC(=O)[C@H](Cc1ccc(O)cc1)NC(=O)[C@H](CC(=O)O)NC(=O)[C@H](CO)NC(=O)[C@@H](NC(=O)[C@H](Cc1ccccc1)NC(=O)[C@@H](NC(=O)CNC(=O)[C@H](CCC(=O)O)NC(=O)C(C)(C)NC(=O)[C@H](N)Cc1ccc(O)cc1)[C@@H](C)O)[C@@H](C)O)[C@@H](C)CC)[C@@H](C)CC)C(=O)N[C@@H](CCC(=O)O)C(=O)NCC(=O)NCC(=O)N1CCC[C@H]1C(=O)N[C@@H](CO)C(=O)N[C@@H](CO)C(=O)NCC(=O)N[C@@H](C)C(=O)N1CCC[C@H]1C(=O)N1CCC[C@H]1C(=O)N1CCC[C@H]1C(=O)N[C@@H](CO)C(N)=O [Example 380] (H-[dY][Aib]EGTFTSDYSI[αMeL]LD[Orn]K([AEEA-AEEA-γGlu-C20 diacid])AQ[Aib]EFIE[αMeY]LIEGGPSSGAPPPS-NH2) | – | 0.142 | 0.236 | – | 0.188 | – | 0.0137 | 35 |
